The values below come from patent publication US20230295235A1, “COMPOUNDS TARGETING ALPHA4-BETA7 INTEGRIN” (ZEALAND PHARMA A/S, priority 2020, published 2023).

Molecules are shown by their SMILES.

This test has as its target T1, α4β7 integrin (MAdCAM-1 binding, α4β7-positive Th memory cells) (Homo sapiens, UniProt P13612+P26010).
T1 construct: endogenous in cells; host or cells: human whole blood
T1 sequence (P13612 34-1032): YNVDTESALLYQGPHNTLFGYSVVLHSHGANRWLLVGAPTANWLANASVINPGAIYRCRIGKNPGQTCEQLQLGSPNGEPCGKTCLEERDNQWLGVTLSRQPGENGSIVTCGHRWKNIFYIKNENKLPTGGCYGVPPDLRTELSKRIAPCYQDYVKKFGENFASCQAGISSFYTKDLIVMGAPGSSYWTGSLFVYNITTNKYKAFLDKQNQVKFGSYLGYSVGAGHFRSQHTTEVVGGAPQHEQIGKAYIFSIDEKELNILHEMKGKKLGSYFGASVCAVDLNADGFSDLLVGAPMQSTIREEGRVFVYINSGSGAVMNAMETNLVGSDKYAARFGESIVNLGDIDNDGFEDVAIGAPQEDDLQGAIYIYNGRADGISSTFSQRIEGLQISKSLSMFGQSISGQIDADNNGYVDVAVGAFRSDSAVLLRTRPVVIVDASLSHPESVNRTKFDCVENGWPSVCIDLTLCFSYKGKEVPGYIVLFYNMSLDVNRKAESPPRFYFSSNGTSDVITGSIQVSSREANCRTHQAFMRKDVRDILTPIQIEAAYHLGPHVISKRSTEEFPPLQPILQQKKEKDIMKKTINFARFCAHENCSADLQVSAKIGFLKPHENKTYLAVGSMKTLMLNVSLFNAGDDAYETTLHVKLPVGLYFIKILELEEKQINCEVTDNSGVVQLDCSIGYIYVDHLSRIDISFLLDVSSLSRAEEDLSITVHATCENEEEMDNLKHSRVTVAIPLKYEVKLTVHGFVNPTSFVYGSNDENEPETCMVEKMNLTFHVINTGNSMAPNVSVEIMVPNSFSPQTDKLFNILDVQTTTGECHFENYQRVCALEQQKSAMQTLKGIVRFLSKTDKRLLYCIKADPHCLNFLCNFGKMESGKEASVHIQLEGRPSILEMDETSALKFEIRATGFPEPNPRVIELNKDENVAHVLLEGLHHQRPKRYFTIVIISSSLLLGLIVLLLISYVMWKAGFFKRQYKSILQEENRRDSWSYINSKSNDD
T1 sequence (P26010 20-798): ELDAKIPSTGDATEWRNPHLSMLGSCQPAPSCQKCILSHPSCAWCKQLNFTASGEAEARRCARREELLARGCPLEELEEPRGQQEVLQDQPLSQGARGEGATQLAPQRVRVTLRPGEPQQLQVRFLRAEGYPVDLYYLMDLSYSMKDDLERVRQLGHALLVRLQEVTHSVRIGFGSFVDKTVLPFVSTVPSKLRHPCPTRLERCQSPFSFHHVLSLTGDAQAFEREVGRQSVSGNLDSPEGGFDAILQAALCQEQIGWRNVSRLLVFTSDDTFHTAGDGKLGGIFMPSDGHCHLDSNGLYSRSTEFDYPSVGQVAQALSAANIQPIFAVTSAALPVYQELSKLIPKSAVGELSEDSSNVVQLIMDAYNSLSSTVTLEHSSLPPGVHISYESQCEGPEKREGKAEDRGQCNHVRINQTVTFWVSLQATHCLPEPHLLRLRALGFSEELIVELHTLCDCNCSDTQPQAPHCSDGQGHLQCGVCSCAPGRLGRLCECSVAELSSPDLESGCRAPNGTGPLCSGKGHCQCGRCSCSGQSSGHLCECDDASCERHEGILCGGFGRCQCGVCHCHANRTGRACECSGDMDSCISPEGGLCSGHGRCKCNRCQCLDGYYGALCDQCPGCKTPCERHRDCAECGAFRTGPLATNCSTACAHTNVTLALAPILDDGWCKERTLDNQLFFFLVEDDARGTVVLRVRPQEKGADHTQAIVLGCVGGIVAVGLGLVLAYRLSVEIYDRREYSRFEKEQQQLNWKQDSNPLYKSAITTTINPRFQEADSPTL
The experiment in a line: Competition assay: inhibition of biotinylated rhMAdCAM-1-Fc binding to α4β7-positive Th memory cells in whole blood (FACS receptor occupancy). Format: cell-based. The conditions noted are these: single donor, 4 mM MnCl2, α4β7-positive Th memory cells, read-out: IC50, inhibition of MAdCAM-1 binding to primary cells. The method, then:
The compound of Example 1 was used in competition assay on CD4+ integrin α4+β7-|o memory T cells.
Receptor occupancy in primary cells was determined by measuring the amount of biotinylated human recombinant MAdCAM-1-Fc or human recombinant VCAM-1-Fc bound to selected cell populations using flow cytometry. Human recombinant MAdCAM-1-Fc or human recombinant VCAM-1-Fc (R&D systems) were biotinylated using commercially available reagents and protocol (Pierce).
Whole blood was collected from human donors in sodium heparin tubes. A volume of 100 µL of blood was incubated with the compound of Example 1 and 4 mM MnCl2 for 1 hour at room temperature. Cells were washed twice with 1 mL of 1X Dulbecco’s phosphate buffered saline (DPBS) calcium magnesium free (CMF) (ThermoFisher Scientific) and resuspended in 100 µL of DPBS CMF. […]
Fluorescence-activated cell sorting (FACS) data was acquired by electronic gating on the basis of forward versus side scatter. […] Cell population were determined using the following markers: CD45+, CD3+, CD4+,CD45RO+, CD49d+, integrin β7, biotinylated ligands.
Compound receptor occupancy was defined as the decrease in the number of integrin β7+ or integrin β7-lo cells binding biotinylated rhMAdCAM-1 or rhVCAM-1, respectively. Receptor occupancy was calculated with the following equation: […]

Regarding `CC(C)C[C@@H]1NC(=O)c2ccc(-c3ccc(N4CCN(C(=O)c5ccccc5-c5ccccc5C(=O)N5CCN(c6ccc(-c7ccc8cc7CNC(=O)[C@@H]7CCCN7[C@H](C(=O)NC(C)(C)C)[C@H](C)NC(=O)[C@H]([C@@H](C)O)NC(=O)[C@H](CC(=O)O)NC(=O)[C@H](CC(C)C)NC8=O)cc6)CC5)CC4)cc3)c(c2)CNC(=O)[C@@H]2CCCN2[C@H](C(=O)NC(C)(C)C)[C@H](C)NC(=O)[C@H]([C@@H](C)O)NC(=O)[C@H](CC(=O)O)NC1=O` [Example 1, 2,2′-((S,S,S,S,S,S,1^2,8S,11S,14S,17S,18S)-((([1,1′-Biphenyl]-2,2′-Dicarbonyl)-Bis(Piperazine-4,1-Diyl))Bis(4,1-Phenylene))Bis(18-(Tert-Butylcarbamoyl)-14-((R)-1-Hydroxyethyl)-8-Isobutyl-17-Methyl-2,6,9,12,15-Pentaoxo-3,7,10,13,16-Pentaaza-1(2,1)-Pyrrolidina-5(1,3)-Benzenacyclooctadecaphane-5^6,11-Diyl))-Diacetic Acid], the IC50 – broadly, the concentration needed to halve the response being measured – was about 87 nM.
